From US20040147006A1, “Peptides that bind to DNA and inhibit DNA replication, and methods of use” (priority 2001, published 2004)
“Also recorded” adds a separate entry of the source. Read-outs that look alike come from different tables or passages of the source.

Experiments:
[1] = tested on: double stranded oligonucleotide containing the SV40 core origin (SEQ ID NO: 24); experiment: Nitrocellulose filter binding of peptide to DNA; conditions: for Binding to DNA in filter binding assay, E1 peptides: peptide 0.25 mM and 0.5 mM; for Binding to DNA in filter binding assay, mutant set: 20 nmoles peptide (1 mM final concentration)
Description: Nitrocellulose filter binding reactions. Assay for the ability of NLS based peptides to bind to DNA were performed using published methods (Sreekumar, K. A., et al., 2000, In, L. Raptis (ed.), Methods in Molecular Biology: SV40 Protocols; Humana Press, Totowa, N.J. p. 49-67). Reactions (20 μl) contained 7 mM MgCl2, 0.5 mM DTT, 4 mM AMP-PNP, 40 mM creatine phosphate (di-Tris salt pH7.7), 0.48 μg of creatine phosphokinase, 0.2 mg of bovine serum albumin per ml, 0.8 μg of Hae III-digested pBR322 DNA, about 25 fmol of a given oligonucleotide (about 10^6 cpm/pmol) and the indicated peptide. After incubation for 20 min at 37° C., the mixtures were filtered under suction through alkali-treated nitrocellulose filters (Millipore type HAWP; pore size, 0.4 μm; stored in 100 mM Tris-HCl, pH7.5). The filters were then washed with 5 ml of 100 mM Tris-HCl, pH 7.5, and were dried and counted in a Beckman LS 3801 scintillation counter.

[2] = target: T1, T-ag oligomerization on 64-bp oligonucleotide containing the SV40 core origin (Simian virus 40, UniProt P03070); format: biochemical; conditions: for Effect on T-ag oligomerization: peptide final concentration 0.5 mM
T1 construct: made in house
T1 sequence (P03070 whole entry): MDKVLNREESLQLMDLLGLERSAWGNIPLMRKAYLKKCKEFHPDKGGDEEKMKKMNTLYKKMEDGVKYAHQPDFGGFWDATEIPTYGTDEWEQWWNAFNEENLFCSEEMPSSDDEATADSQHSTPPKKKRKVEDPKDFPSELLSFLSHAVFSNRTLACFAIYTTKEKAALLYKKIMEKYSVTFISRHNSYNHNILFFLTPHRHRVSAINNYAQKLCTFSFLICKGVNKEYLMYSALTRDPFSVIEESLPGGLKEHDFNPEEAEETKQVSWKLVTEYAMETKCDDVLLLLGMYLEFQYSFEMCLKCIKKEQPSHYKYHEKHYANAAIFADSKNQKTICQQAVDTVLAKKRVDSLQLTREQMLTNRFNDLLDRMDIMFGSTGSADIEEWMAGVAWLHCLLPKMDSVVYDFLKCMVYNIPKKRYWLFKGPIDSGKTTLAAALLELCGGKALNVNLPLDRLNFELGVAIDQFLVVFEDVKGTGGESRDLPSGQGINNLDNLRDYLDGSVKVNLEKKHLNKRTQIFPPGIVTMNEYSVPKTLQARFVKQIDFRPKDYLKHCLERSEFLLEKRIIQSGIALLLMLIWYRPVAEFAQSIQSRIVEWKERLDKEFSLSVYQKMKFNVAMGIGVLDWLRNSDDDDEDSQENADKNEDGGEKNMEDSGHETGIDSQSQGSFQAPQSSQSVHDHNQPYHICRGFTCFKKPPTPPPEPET
Description: (§1) Electrophoretic mobility shift assays (EMSA). Double stranded oligonucleotides, ^32P labeled at 5′ termini, were prepared using standard procedures (Sambrook, J., et al., 1989, Cold Spring Harbor Laboratory, Cold Spring Harbor, N.Y.; Sreekumar, K. A., et al., 2000, p. 49-67; In, L. Raptis (ed.), Methods in Molecular Biology; SV40 Protocols; Humana Press; Totowa, N.J.). EMSA rections were conducted using conditions for SV40 in vitro replication (Wobbe, C. R., et al., 1985, Proc. Natl. Acad. Sci. USA 82:5710-571 4). The reactions (20 μl) contained 7 mM MgCl2, 0.5 mM DTT, 4 mM AMP-PNP, 40 mM creatine phosphate (pH 7.6), 0.48 μg of creatine phosphate kinase, 5 μg of bovine serum albumin, 0.8 μg of Hae III-digested pBR322 ([…]; used as a nonspecific competitor), about 25 fmol of double stranded oligonucleotide, T-ag and the indicated amounts of peptide. After a 20-min incubation at 37° C., glutaraldehyde (0.1 % final concentration) was added and the reaction products were further incubated for 5 min. The reactions were stopped by the addition of 5 μl of 6× loading dye II (15% Ficoll, 0.25% bromophenol blue, and 0.25% xylene cyanol; Sambrook, J., et al., 1989, Cold Spring Harbor Laboratory, Cold Spring Harbor, N.Y.) to the reaction mixtures. Samples containing T-ag were applied to 3.5 to 12% gradient polyacrylamide gels and electrophoresed in 0.5% Tris-borate-EDTA (TBE) pH 8.4 for about 1.5 h (10 watts).

[3] = tested on: SV40 DNA replication in HeLa human cell crude extracts; experiment: SV40 in vitro replication reaction; format: biochemical; conditions: 30 μl reactions, with T-ag
Description: DNA replication reactions. SV40 in vitro replication reactions were conducted as described by Wobbe et al 1985, Proc. Natl. Acad. Sci. USA 82:5710-5714 (see also, Bullock, P. A., et al., 1998, p. 223-243. In S. Cotterill (ed.), Eukaryotic DNA Replication; A practical Approach, Oxford University Press, Oxford). Reaction mixtures (30 μl) contained 7 mM MgCl2, 0.5 mM DTT, 4 mM ATP, 40 mM creatine phosphate (di-Tris salt pH7.7), 1.4 μg of creatine phosphokinase, 12.5 μg/ml pSV01ΔEP, dATP, dGTP, and dTTP (100 μM each), CTP, GTP, and UTP (200 μM each), [α-^32p] dCTP (20 μM, about 5 cpm/fmol) and the indicated peptides.

[4] = target: T2, T-ag helicase ATPase (Simian virus 40, UniProt P03070); format: biochemical, SV40; conditions: duplicate lanes, FIG. 13
T2 construct: made in house
T2 sequence (P03070 whole entry): as above
Description: A method for measuring ATP hydrolysis involves incubating T-ag with a ^32P-labeled ATP, cross-linking with gluteraldehyde, removing unincorporated nucleotides by passing the reaction products over a Bio-Spin P-30 column, drying the eluate in a Speedvac, resuspending the samples in formic acid, and performing thin layer chromatography on PEI (polyethyleneimine) plates. Using autoradiography, the amount of ATP, ADP and AMP associated with T-ag was determined.

[5] = tested on: 64 bp SV40 core origin (SEQ ID NO: 24); experiment: Peptide band shift (EMSA without T-ag), core origin; format: binding; conditions: SV40 core origin
Description: as §1
[…] Moreover, the samples were loaded on 8% polyacryamide gels and electrophoresed in 0.5% TBE pH 8.4 for about 3h (about 200 volts). The gels were dried on Whatman 3 MM paper, subjected to autoradiography and quantitated using a Molecular Dynamics PhosphorImager (Sunnyvale, Calif.).

[6] = tested on: 64 bp enhancer control (SEQ ID NO: 29); experiment: Peptide band shift (EMSA without T-ag), control oligonucleotide; format: binding; conditions: 64 bp enhancer control oligonucleotide; listed as peptide T124A13
Description: as §1
Peptide based band shift reactions were identical to those described above except that T-ag was omitted from the reactions and the final glutaraldehyde concentration was reduced to 0.05 %. Moreover, the samples were loaded on 8% polyacryamide gels and electrophoresed in 0.5% TBE pH 8.4 for about 3h (about 200 volts). The gels were dried on Whatman 3 MM paper, subjected to autoradiography and quantitated using a Molecular Dynamics PhosphorImager (Sunnyvale, Calif.).

[7] = peptide 0.5 mM to 2 mM, replication conditions, pBR322 competitor
[8] = 13-mer set at 1 mM final concentration (20 nmoles)
[9] = high peptide concentrations (1 mM and 2 mM)
[10] = peptide final concentration 1 mM (20 nmoles), T-ag 6 pmol
[11] = T-ag 6 pmol, 64-bp SV40 core origin, peptide concentration not given

Substance: SEASETPVKRRKGKRKVLGSSQNSS [control BP-E125]
- Binding to DNA in filter binding assay, E1 peptides [1]: bound to DNA at much reduced levels
- Effect on T-ag assembly, E1 Cdk/NLS peptides ([2]; 5 nmol peptide, final concentration 0.25 mM, T-ag 6 pmol): found not to block T-ag assembly
- Inhibition of SV40 in vitro DNA replication [3]: not an efficient inhibitor of replication

Substance: PPKKKRKVpTATADSQHS [peptide 317]
- Effect on T-ag oligomerization (hexamer and double hexamer formation) [2]: no inhibition of T-ag assembly

Substance: ADSQHSpTPPKKKR [peptide 113]
- Binding to DNA in filter binding assay [1, 7]: did not bind DNA at significant levels
- Binding to DNA in filter binding assay ([1]; peptide 0.5 mM to 2 mM, replication conditions, pBR322 competitor, listed as peptide T-113): did not bind to the oligonucleotide at significant levels
- Effect on T-ag oligomerization (hexamer and double hexamer formation) [2]: little or no effect on T-ag oligomerization
- Effect on T-ag oligomerization, mutant set (FIG. 11 Panel B) [2]: did not; also recorded: no inhibition of oligomerization of T-ag
- Effect on ATPase of T-ag [4]: did not modulate the ATPase of T-ag activity

Substance: PPKKKRTADSQHS [peptide 413, rearranged control 13-mer]
- Peptide/DNA complex formation in peptide band shift [5, 8]: did not
- Binding to DNA in filter binding assay [1, 9]: Low levels of binding
- Binding to DNA in filter binding assay ([1]; high peptide concentrations (1 mM and 2 mM), listed as peptide T-413): low levels of binding
- Effect on T-ag oligomerization (hexamer and double hexamer formation) [2, 10]: little or no effect on T-ag oligomerization

Substance: ADSQHSAPPKKKR [T124A13]
- Peptide/DNA complex formation in peptide band shift [5, 8]: does not affect DNA binding
- Peptide/DNA complex formation in peptide band shift ([5]; 13-mer set at 1 mM final concentration (20 nmoles), listed as peptide T124A13): bound to DNA and formed a complex; also recorded: Mobility shifts are seen
- Binding to DNA in filter binding assay, mutant set [1]: bind to DNA as well as does wild type peptide T-213
- Effect on T-ag oligomerization, mutant set (FIG. 11 Panel B) [2, 11]: does not destroy the inhibitory property of the peptide
- Peptide/DNA complex formation in peptide band shift [6]: does not require a large degree of sequence specificity; also recorded: requires little demonstrable nucleotide sequence specificity; also recorded: Mobility shifts are seen

Substance: ADSQHSTAPKKKR [P125A13]
- Binding to DNA in filter binding assay, mutant set [1]: bind to DNA as well as does wild type peptide T-213
- Effect on T-ag oligomerization, mutant set (FIG. 11 Panel B) [2, 11]: Full inhibition of oligomerization

Substance: ATADSQHSpTPPKKKRKV [peptide 117]
- Binding to DNA in filter binding assay [1, 9]: observed to bind to DNA
- Binding to DNA in filter binding assay ([1]; high peptide concentrations (1 mM and 2 mM), listed as peptide T-117): observed to bind to DNA at higher peptide concentrations
- Effect on T-ag oligomerization (hexamer and double hexamer formation) [2]: no inhibition of T-ag assembly

Substance: ATADSQHSTPPKKKRKV (Virus; Host Macaca mulatta; DOMAIN (1)..(17) Domain SV40 T-Antigen (116)...(132)) [peptide 217, 17-mer of SV40 T-ag with complete NLS]
- Binding to DNA in filter binding assay [1, 9]: saturated
- Binding to DNA in filter binding assay ([1]; peptide 0.5 mM): significant binding was observed
- Binding to DNA in filter binding assay [1, 7]: relatively high affinity for binding to DNA
- Binding to DNA in filter binding assay ([1]; peptide 0.5 mM to 2 mM, replication conditions, pBR322 competitor, listed as peptide T-217): higher affinity for this DNA than does peptide T-213
- Effect on T-ag oligomerization ([2]; T-ag 6 pmol): inhibited T-ag oligomerization
- Effect on T-ag oligomerization (hexamer and double hexamer formation) [2, 10]: completely blocked
- Inhibition of SV40 in vitro DNA replication [3]: not an efficient inhibitor of DNA replication; also recorded: unable to inhibit replication

Substance: SQHSTPPKK [peptide 29]
- Peptide/DNA complex formation in peptide band shift ([5]; peptide 2 mM): binding was not detected

Substance: PPKKKRpTADSQHS [peptide 313]
- Effect on T-ag oligomerization (hexamer and double hexamer formation) [2]: little or no effect on T-ag oligomerization

Substance: ADSQHSTPAKKKR [P126A13]
- Binding to DNA in filter binding assay, mutant set [1]: bind to DNA as well as does wild type peptide T-213
- Effect on T-ag oligomerization, mutant set (FIG. 11 Panel B) [2, 11]: Full inhibition of oligomerization

Substance: PPKKKRKVTATADSQHS [peptide 417, rearranged control 17-mer]
- Binding to DNA in filter binding assay [1, 9]: observed to bind to DNA
- Binding to DNA in filter binding assay ([1]; high peptide concentrations (1 mM and 2 mM), listed as peptide T-417): observed to bind to DNA at higher peptide concentrations
- Effect on T-ag oligomerization ([2]; T-ag 6 pmol): did not inhibit
- Effect on T-ag oligomerization ([2]; T-ag 6 pmol, listed as peptide T-417): did not

Substance: KKRRKRVKLVGPSTSEQSNASESSG [SEQ ID NO: 30]
- Inhibition of SV40 in vitro DNA replication [3]: retains ability to inhibit replication of DNA
- Inhibition of SV40 in vitro DNA replication ([3]; listed as SEQ ID NO:30): good inhibitor of DNA replication

Substance: RKVLGSSQNSSGSEASEpTPVKRRK [peptide E1-P125]
- Binding to DNA in filter binding assay, E1 peptides [1]: binds to DNA at levels similar to the control peptide E1-425
- Effect on ATPase of T-ag [4]: had no effect
